Measured values as given in patent US20250186391A1, “ORAL COMPLEMENT FACTOR D INHIBITORS” (BioCryst Pharmaceuticals, Inc., priority 2019, published 2025).

Molecular target: Factor D (Homo sapiens (Human), UniProt P00746)
Assay: Factor D esterolytic assay
Assay type: biochemical
Conditions: Z-Lys-SBzl substrate, 100 mM HEPES, 500 mM NaCl, pH 7.5, 10% DMSO; tested a minimum of three times; read-out: Measured Ki (IC50) Value for Compounds: IC50
Method in brief: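 Chromogenic thioesterase read-out: Z-Lys-SBzl (1.29 mM) hydrolysis by human Factor D, thiol detected with DTNB at 405 nm (690 nm background subtracted) for 600 s. Run in 100 mM HEPES, 500 mM NaCl, pH 7.5, 10% DMSO, substrate added immediately or after room-temperature preincubation. IC50 from percent inhibition versus enzyme alone, n≥3.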

Chain of Factor D (P00746 26-253): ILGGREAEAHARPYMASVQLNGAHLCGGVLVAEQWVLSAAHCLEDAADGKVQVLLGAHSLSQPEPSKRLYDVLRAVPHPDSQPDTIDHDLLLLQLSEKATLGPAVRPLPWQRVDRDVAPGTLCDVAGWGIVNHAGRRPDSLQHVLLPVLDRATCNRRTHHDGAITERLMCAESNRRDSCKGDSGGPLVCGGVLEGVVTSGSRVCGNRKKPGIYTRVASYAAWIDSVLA

SMILES	IC50 [nM]
COc1ccc(CC(=O)O)c(OCc2c(C(C)C)oc3ccc(-c4cccc(CN)c4)cc23)c1 [Compound 169c, 2-(2-((5-(3-(aminomethyl)phenyl)-2-isopropylbenzofuran-3-yl)methoxy)-4-methoxyphenyl)acetic acid]	< 1000
NCc1cccc(-c2cc(CCC3CC3)c3occ(COc4ccccc4CC(=O)O)c3c2)c1 [Compound 170b, 2-(2-((5-(3-(aminomethyl)phenyl)-7-(2-cyclopropylethyl)benzofuran-3-yl)methoxy)phenyl)acetic acid]	< 1000
CC(C)(C)c1oc2ccc(-c3cccc(CN)c3)cc2c1COc1ccccc1CC(=O)O [Compound 171i, 2-(2-((5-(3-(aminomethyl)phenyl)-2-(tert-butyl)benzofuran-3-yl)methoxy)phenyl)acetic acid]	< 1000
COc1ccc(CC(=O)O)c(OCc2c(F)oc3ccc(-c4cccc(CN)c4)cc23)c1 [Compound 172f, 2-(2-((5-(3-(aminomethyl)phenyl)-2-fluorobenzofuran-3-yl)methoxy)-4-methoxyphenyl)acetic acid]	< 1000
CC(C)(C)c1oc2ccc(-c3cccc(CN)c3)cc2c1COc1cc(F)ccc1CC(=O)O [Compound 173c, 2-(2-((5-(3-(aminomethyl)phenyl)-2-(tert-butyl)benzofuran-3-yl)methoxy)-4-fluorophenyl)acetic acid]	< 1000
COc1ccc(CC(=O)O)c(OCc2c(C(C)(C)C)oc3ccc(-c4cccc(CN)c4)cc23)c1 [Compound 174c, 2-(2-((5-(3-(aminomethyl)phenyl)-2-(tert-butyl)benzofuran-3-yl)methoxy)-4-methoxyphenyl)acetic acid]	< 1000
COCCc1oc2ccc(-c3cccc(CN)c3)cc2c1COc1ccccc1CC(=O)O [Compound 175h, 2-(2-((5-(3-(aminomethyl)phenyl)-2-(2-methoxyethyl)benzofuran-3-yl)methoxy)phenyl)acetic acid]	< 1000
Cc1ccc(CC(=O)O)c(OCc2c(C(C)(C)C)oc3ccc(-c4cccc(CN)c4)cc23)c1 [Compound 176c, 2-(2-((5-(3-(aminomethyl)phenyl)-2-(tert-butyl)benzofuran-3-yl)methoxy)-4-methylphenyl)acetic acid]	< 1000
CC(C)(C)OC(=O)N(Cc1cc(-c2cccc(CN)c2)cc2c(COc3ccccc3CC(=O)O)coc12)CC(F)(F)F [Compound 177g, 2-(2-((5-(3-(aminomethyl)phenyl)-7-(((tert-butoxycarbonyl)(2,2,2-trifluoroethyl)amino)methyl)benzofuran-3-yl)methoxy)phenyl)acetic acid]	< 1000
NCc1cccc(-c2cc(CN3CCC[C@H]3C(F)(F)F)c3occ(COc4ccccc4CC(=O)O)c3c2)c1 [Compound 178f, (S)-2-(2-((5-(3-(aminomethyl)phenyl)-7-((2-(trifluoromethyl)pyrrolidin-1-yl)methyl)benzofuran-3-yl)methoxy)phenyl)acetic acid]	< 1000
NCc1cccc(-c2cc(CNCC(F)(F)F)c3occ(COc4ccccc4CC(=O)O)c3c2)c1 [Compound 179b, 2-(2-((5-(3-(aminomethyl)phenyl)-7-(((2,2,2-trifluoroethyl)amino)methyl)benzofuran-3-yl)methoxy)phenyl)acetic acid]	< 1000

The next lines start with the values.

IC50 [nM]	SMILES
< 1000	NCc1cccc(-c2cc(Cn3ccnc3)c3occ(COc4ccccc4CC(=O)O)c3c2)c1 [Compound 155e, 2-(2-((7-((1H-imidazol-1-yl)methyl)-5-(3-(aminomethyl)phenyl)benzofuran-3-yl)methoxy)phenyl)acetic acid]
< 1000	NCc1cccc(-c2ccc3occ(COc4cc(CN)ccc4CC(=O)O)c3c2)c1 [Compound 156c, 2-(4-(aminomethyl)-2-((5-(3-(aminomethyl)phenyl)benzofuran-3-yl)methoxy)phenyl)acetic acid]
< 1000	CN1CCN(Cc2cc(-c3cccc(CN)c3)cc3c(COc4ccccc4CC(=O)O)coc23)CC1 [Compound 157e, 2-(2-((5-(3-(aminomethyl)phenyl)-7-((4-methylpiperazin-1-yl)methyl)benzofuran-3-yl)methoxy)phenyl)acetic acid]
< 1000	NCc1cccc(-c2ccc3occ(COc4cc(C(=O)O)ccc4CC(=O)O)c3c2)c1 [Compound 158d, 3-((5-(3-(aminomethyl)phenyl)benzofuran-3-yl)methoxy)-4-(carboxymethyl)benzoic acid]
< 1000	NCc1cccc(-c2cc(OCC3CC3)c3occ(COc4ccccc4CC(=O)O)c3c2)c1 [Compound 159f, 2-(2-((5-(3-(aminomethyl)phenyl)-7-(cyclopropylmethoxy)benzofuran-3-yl)methoxy)phenyl)acetic acid]
< 1000	COc1ccc(CC(=O)O)c(OCc2coc3c(OCC4CC4)cc(-c4cccc(CN)c4)cc23)c1 [Compound 160c, 2-(2-((5-(3-(aminomethyl)phenyl)-7-(cyclopropylmethoxy)benzofuran-3-yl)methoxy)-4-methoxyphenyl)acetic acid]
< 1000	Cc1ccc(CC(=O)O)c(OCc2coc3c(OCC4CC4)cc(-c4cccc(CN)c4)cc23)c1 [Compound 161c, 2-(2-((5-(3-(aminomethyl)phenyl)-7-(cyclopropylmethoxy)benzofuran-3-yl)methoxy)-4-methylphenyl)acetic acid]
< 1000	NCc1cccc(-c2cc(-c3cccnc3)c3occ(COc4ccccc4CC(=O)O)c3c2)c1 [Compound 162c, 2-(2-((5-(3-(aminomethyl)phenyl)-7-(pyridin-3-yl)benzofuran-3-yl)methoxy)phenyl)acetic acid]
< 1000	NCc1cccc(-c2cc(CC3CCOCC3)c3occ(COc4ccccc4CC(=O)O)c3c2)c1 [Compound 163e, 2-(2-((5-(3-(aminomethyl)phenyl)-7-((tetrahydro-2H-pyran-4-yl)methyl)benzofuran-3-yl)methoxy)phenyl)acetic acid]
< 1000	C[C@@H](N)c1cccc(-c2cc(CC3CCOCC3)c3occ(COc4ccccc4CC(=O)O)c3c2)c1F [Compound 164e, (R)-2-(2-((5-(3-(1-aminoethyl)-2-fluorophenyl)-7-((tetrahydro-2H-pyran-4-yl)methyl)benzofuran-3-yl)methoxy)phenyl)acetic acid]
< 1000	Cc1ncc(-c2cc(-c3cccc(CN)c3)cc3c(COc4ccccc4CC(=O)O)coc23)cn1 [Compound 165c, 2-(2-((5-(3-(aminomethyl)phenyl)-7-(2-methylpyrimidin-5-yl)benzofuran-3-yl)methoxy)phenyl)acetic acid]
< 1000	NCc1cccc(-c2cc(OCc3ccncc3)c3occ(COc4ccccc4CC(=O)O)c3c2)c1 [Compound 166f, 2-(2-((5-(3-(aminomethyl)phenyl)-7-(pyridin-4-ylmethoxy)benzofuran-3-yl)methoxy)phenyl)acetic acid]
< 1000	NCc1cccc(-c2ccc3oc(-c4ccc(F)cc4)c(COc4ccccc4CC(=O)O)c3c2)c1 [Compound 167e, 2-(2-((5-(3-(aminomethyl)phenyl)-2-(4-fluorophenyl)benzofuran-3-yl)methoxy)phenyl)acetic acid]
< 1000	COc1ccc(CC(=O)O)c(OCc2c(-c3ccc(F)cc3)oc3ccc(-c4cccc(CN)c4)cc23)c1 [Compound 168c, 2-(2-((5-(3-(aminomethyl)phenyl)-2-(4-fluorophenyl)benzofuran-3-yl)methoxy)-4-methoxyphenyl)acetic acid]
